ChEMBL document CHEMBL4706768, “Discovery of Potent, Selective Triazolothiadiazole-Containing c-Met Inhibitors” (ACS Med Chem Lett, 2021)
pIC50, pKi: −log10 of the molar value.

How the values were obtained:
[1] = biological target: Hepatocyte growth factor receptor (Homo sapiens, UniProt P08581); assay: Inhibition of c-MET in human SNU-5 cells measured after 6 hrs by steady-glo luciferase reporter gene assay; assay type: cell-based
[2] = biological target: Mitogen-activated protein kinase; ERK1/ERK2 (Homo sapiens) (UniProt P27361+P28482); assay: Inhibition of recombinant human full-length N-terminal GST-tagged MAPK1/ERK1 ([…]) expressed in Escherichia coli at 2 uM using MBP as substrate relative to control
[3] = biological target: Ribosomal protein S6 kinase alpha-5 (Homo sapiens) (UniProt O75582); assay: Inhibition of recombinant human N-terminal His6-tagged MSK1 (2 to end residues) expressed in baculovirus infected Sf21 insect cells at 2 uM using Crosstide as substrate relative to control
[4] = biological target: Dual specificity mitogen-activated protein kinase kinase 1 (Homo sapiens) (UniProt Q02750); assay: Inhibition of recombinant human N-terminal GST-tagged/C-terminal His6-tagged full-length MEK1 expressed in Escherichia coli at 2 uM using MBP as substrate relative to control
[5] = biological target: ALK tyrosine kinase receptor (Homo sapiens) (UniProt Q9UM73); assay: Inhibition of recombinant N-terminal His6-tagged human ALK (1058 to end residues) expressed in baculovirus infected Sf21 insect cells at 2 uM using IGF-1Rtide as substrate relative to control
[6] = biological target: Platelet-derived growth factor receptor alpha (Homo sapiens) (UniProt P16234); assay: Inhibition of recombinant human N-terminal His6-tagged PDGFRalpha (550 to end residues) expressed in baculovirus infected Sf21 insect cells at 2 uM using poly (Glu4-Tyr) (4:1) as substrate relative to control
[7] = biological target: Protein kinase C theta type (Homo sapiens) (UniProt Q04759); assay: Inhibition of recombinant human full-length C-terminal His6-tagged PKCtheta expressed in Sf21 insect cells at 2 uM using Histone H1 as substrate relative to control
[8] = test system: RAF proto-oncogene serine/threonine-protein kinase (Homo sapiens), P04049 [Y340D,Y341D]; assay: Inhibition of recombinant human N-terminal GST-tagged c-RAF Y340D/Y341D mutant (306 to 648 residues) expressed in Sf9 insect cells at 2 uM using MEK1(K97R) as substrate relative to control
[9] = biological target: Vascular endothelial growth factor receptor 1 (Homo sapiens) (UniProt P17948); assay: Inhibition of recombinant human N-terminal GST-tagged FLT1 (783 to end residues) expressed in baculovirus infected Sf21 insect cells at 2 uM using KKKSPGEYVNIEFG as substrate relative to control
[10] = biological target: Serine/threonine-protein kinase Sgk1 (Homo sapiens) (UniProt O00141); assay: Inhibition of SGK (unknown origin) at 2 uM relative to control
Chain of Serine/threonine-protein kinase Sgk1 (Homo sapiens) (O00141 whole entry): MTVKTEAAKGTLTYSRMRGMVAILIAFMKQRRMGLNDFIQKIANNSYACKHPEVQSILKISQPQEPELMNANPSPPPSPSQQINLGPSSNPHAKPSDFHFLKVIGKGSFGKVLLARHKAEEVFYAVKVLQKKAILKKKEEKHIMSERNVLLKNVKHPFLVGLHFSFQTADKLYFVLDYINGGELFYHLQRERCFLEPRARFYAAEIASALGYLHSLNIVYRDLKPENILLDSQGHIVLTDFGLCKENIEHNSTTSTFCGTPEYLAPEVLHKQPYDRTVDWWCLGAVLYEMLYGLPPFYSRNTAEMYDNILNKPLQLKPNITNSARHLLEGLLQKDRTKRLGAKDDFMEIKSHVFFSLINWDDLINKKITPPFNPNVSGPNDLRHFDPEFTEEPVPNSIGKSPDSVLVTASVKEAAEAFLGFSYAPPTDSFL

[11] = biological target: Proto-oncogene tyrosine-protein kinase receptor Ret (Homo sapiens) (UniProt P07949); assay: Inhibition of recombinant human N-terminal GST-tagged RET (658 to end residues) expressed in baculovirus infected Sf21 insect cells at 2 uM using IFG1Rtide as substrate relative to control
Chain of Proto-oncogene tyrosine-protein kinase receptor Ret (Homo sapiens) (P07949 whole entry, the tested form may be a part): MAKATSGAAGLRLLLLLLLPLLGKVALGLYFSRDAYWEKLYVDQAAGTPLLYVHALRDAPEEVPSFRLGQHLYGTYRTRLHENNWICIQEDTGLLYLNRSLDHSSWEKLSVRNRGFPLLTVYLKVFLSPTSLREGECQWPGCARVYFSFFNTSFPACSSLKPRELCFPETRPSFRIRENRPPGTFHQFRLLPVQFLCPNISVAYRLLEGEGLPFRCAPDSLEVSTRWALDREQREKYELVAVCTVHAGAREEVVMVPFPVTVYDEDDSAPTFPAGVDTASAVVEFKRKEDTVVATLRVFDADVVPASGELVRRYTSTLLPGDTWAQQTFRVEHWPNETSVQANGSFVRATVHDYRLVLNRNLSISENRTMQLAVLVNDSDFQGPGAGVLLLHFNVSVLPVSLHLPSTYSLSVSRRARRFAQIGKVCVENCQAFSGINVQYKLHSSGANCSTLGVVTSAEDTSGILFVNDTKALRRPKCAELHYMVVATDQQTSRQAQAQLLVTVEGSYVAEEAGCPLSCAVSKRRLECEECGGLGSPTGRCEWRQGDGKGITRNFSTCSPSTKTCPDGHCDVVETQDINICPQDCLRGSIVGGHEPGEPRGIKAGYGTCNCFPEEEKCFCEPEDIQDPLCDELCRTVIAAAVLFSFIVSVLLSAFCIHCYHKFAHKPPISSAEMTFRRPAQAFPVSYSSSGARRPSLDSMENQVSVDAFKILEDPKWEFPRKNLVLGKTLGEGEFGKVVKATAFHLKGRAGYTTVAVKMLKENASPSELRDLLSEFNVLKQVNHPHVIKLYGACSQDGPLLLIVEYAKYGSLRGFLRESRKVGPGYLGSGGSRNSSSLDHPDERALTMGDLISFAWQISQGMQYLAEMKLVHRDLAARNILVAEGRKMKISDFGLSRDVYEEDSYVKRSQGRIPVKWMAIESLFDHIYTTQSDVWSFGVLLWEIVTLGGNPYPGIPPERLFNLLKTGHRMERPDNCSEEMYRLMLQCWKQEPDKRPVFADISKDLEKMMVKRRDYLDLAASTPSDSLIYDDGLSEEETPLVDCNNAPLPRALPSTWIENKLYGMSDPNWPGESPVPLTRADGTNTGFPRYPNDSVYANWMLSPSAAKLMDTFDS

[12] = biological target: Rho-associated protein kinase 2 (Homo sapiens) (UniProt O75116); assay: Inhibition of recombinant human N-terminal GST-tagged ROCK2 (5 to 554 residues) expressed in baculovirus infected Spodoptera frugiperda insect cells at 2 uM using KRRRLASLR as substrate relative to control
[13] = biological target: Proto-oncogene tyrosine-protein kinase Src (Homo sapiens, UniProt P12931); assay: Inhibition of SRC (unknown origin)
[14] = biological target: Calcium/calmodulin-dependent protein kinase type II subunit beta (Homo sapiens) (UniProt Q13554); assay: Inhibition of recombinant human N-terminal His6-tagged CAMK2beta (1 to 315 residues) expressed in baculovirus infected Sf21 insect cells at 2 uM using ZIPtide as substrate relative to control
[15] = biological target: Fibroblast growth factor receptor 3 (Homo sapiens) (UniProt P22607); assay: Inhibition of recombinant human N-terminal His6-tagged FGFR3 (447 to 761 residues) expressed in Sf21 insect cells at 2 uM using poly (Glu,Tyr) (4:1) as substrate relative to control
[16] = biological target: Tyrosine-protein kinase Fes/Fps (Homo sapiens) (UniProt P07332); assay: Inhibition of recombinant human N-terminal His6-tagged FES (561 to end residues) expressed in baculovirus infected Sf21 insect cells at 2 uM using poly (Glu,Tyr) (4:1) as substrate relative to control
Chain of Tyrosine-protein kinase Fes/Fps (Homo sapiens) (P07332 whole entry): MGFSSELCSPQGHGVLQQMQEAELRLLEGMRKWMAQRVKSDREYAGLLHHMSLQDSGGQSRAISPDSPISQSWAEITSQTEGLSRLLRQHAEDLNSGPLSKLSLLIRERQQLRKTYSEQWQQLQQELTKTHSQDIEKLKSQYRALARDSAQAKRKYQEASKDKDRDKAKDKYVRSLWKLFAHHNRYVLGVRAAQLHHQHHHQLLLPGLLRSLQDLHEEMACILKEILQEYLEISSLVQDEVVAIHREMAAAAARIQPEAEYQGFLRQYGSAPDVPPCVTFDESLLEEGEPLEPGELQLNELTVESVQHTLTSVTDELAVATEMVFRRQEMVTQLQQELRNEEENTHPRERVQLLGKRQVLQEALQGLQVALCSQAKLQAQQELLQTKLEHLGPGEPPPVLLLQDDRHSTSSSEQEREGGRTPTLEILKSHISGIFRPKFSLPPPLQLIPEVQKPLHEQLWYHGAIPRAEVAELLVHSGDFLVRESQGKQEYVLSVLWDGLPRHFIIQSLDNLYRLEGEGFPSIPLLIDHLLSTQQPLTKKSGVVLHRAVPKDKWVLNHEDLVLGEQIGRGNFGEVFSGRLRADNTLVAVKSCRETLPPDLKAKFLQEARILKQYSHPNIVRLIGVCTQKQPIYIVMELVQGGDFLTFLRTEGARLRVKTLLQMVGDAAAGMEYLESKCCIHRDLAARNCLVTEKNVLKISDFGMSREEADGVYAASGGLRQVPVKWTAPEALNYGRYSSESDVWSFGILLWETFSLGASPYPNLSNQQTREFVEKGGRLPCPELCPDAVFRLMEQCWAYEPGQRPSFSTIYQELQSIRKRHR

[17] = biological target: Serine/threonine-protein kinase PAK 2 (Homo sapiens) (UniProt Q13177); assay: Inhibition of recombinant human N-terminal/C-terminal His6-tagged full-length PAK2 (3 to end residues) expressed in Escherichia coli at 2 uM using long S6 Kinase peptide as substrate relative to control
[18] = biological target: Tyrosine-protein kinase Lyn (Homo sapiens) (UniProt P07948); assay: Inhibition of recombinant human N-terminal His6-tagged full-length LYN expressed in Sf21 insect cells at 2 uM using Poly (Glu4-Tyr) (4:1) as substrate relative to control
Chain of Tyrosine-protein kinase Lyn (Homo sapiens) (P07948 2-512 limits assumed): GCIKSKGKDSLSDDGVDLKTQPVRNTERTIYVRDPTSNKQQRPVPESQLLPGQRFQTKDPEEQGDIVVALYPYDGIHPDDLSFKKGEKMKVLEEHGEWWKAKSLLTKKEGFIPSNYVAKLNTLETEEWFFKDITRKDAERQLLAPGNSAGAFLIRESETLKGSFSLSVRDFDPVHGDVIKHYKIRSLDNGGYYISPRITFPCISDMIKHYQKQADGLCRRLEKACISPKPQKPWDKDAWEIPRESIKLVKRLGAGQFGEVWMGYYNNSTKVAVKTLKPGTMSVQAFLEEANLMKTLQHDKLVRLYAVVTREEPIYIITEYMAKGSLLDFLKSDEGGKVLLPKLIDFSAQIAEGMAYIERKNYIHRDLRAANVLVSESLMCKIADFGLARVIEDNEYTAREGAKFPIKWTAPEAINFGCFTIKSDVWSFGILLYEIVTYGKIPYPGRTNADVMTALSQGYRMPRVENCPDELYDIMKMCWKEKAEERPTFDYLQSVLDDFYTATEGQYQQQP

[19] = biological target: Dual specificity mitogen-activated protein kinase kinase 6 (Homo sapiens) (UniProt P52564); assay: Inhibition of recombinant human N-terminal MBP-tagged MKK6 (4 to end residues) expressed in Escherichia coli at 2 uM using p38alpha/SAPK2a.as substrate relative to control
Chain of Dual specificity mitogen-activated protein kinase kinase 6 (Homo sapiens) (P52564 whole entry): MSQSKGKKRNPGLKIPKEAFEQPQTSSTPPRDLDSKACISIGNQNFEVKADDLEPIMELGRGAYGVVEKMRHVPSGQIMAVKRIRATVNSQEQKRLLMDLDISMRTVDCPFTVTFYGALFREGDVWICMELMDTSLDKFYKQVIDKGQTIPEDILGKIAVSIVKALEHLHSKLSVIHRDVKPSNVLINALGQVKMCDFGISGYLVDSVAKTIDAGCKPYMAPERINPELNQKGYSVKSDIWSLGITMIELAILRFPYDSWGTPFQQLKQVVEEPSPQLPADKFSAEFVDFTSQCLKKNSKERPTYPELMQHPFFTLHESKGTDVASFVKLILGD

[20] = Unbound intrinsic clearance in human hepatocytes assessed per million cells; assay type: ADME, cell-based, Hepatocyte
[21] = biological target: Ribosomal protein S6 kinase alpha-2 (Homo sapiens) (UniProt Q15349); assay: Inhibition of recombinant human N-terminal full-length His6-tagged RSK3 ([…]) expressed in Sf21 insect cells at 2 uM using MAPKAP Kinase 2 as substrate relative to control
Chain of Ribosomal protein S6 kinase alpha-2 (Homo sapiens) (Q15349 whole entry): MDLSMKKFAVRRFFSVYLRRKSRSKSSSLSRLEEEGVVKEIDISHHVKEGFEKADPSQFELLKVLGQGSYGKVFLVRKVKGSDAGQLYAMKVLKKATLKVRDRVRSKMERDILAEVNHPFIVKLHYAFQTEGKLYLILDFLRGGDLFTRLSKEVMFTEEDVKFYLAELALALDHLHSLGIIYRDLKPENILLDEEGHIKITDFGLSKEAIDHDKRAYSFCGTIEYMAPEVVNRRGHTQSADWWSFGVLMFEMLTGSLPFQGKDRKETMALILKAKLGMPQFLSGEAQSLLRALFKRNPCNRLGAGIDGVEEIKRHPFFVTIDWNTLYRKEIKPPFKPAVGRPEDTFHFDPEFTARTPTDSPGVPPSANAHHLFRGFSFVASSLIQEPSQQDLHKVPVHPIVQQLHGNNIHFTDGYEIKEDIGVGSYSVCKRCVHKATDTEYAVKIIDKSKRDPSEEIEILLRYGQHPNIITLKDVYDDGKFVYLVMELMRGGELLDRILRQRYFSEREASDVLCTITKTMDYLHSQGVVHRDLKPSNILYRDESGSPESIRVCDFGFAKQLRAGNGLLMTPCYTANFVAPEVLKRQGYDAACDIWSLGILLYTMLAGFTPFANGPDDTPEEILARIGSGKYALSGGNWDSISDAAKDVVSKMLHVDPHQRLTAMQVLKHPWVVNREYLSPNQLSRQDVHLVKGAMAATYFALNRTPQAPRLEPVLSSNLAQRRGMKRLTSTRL

[22] = Unbound intrinsic clearance in mouse hepatocytes assessed per million cells; assay type: ADME, cell-based, Hepatocyte
[23] = biological target: Mitogen-activated protein kinase kinase kinase 5 (Homo sapiens) (UniProt Q99683); assay: Inhibition of recombinant N-terminal GST-tagged/C-terminal His6-tagged human ASK1 (649 to 946 residues) expressed in Escherichia coli at 2 uM using MBP as substrate relative to control
[24] = biological target: Angiopoietin-1 receptor (Homo sapiens) (UniProt Q02763); assay: Inhibition of recombinant human N-terminal His6-tagged TIE2 (771 to end residues) expressed in baculovirus infected Sf21 insect cells at 2 uM using poly (Glu4-Tyr) (4:1) as substrate relative to control
Chain of Angiopoietin-1 receptor (Homo sapiens) (Q02763 whole entry, the tested form may be a part): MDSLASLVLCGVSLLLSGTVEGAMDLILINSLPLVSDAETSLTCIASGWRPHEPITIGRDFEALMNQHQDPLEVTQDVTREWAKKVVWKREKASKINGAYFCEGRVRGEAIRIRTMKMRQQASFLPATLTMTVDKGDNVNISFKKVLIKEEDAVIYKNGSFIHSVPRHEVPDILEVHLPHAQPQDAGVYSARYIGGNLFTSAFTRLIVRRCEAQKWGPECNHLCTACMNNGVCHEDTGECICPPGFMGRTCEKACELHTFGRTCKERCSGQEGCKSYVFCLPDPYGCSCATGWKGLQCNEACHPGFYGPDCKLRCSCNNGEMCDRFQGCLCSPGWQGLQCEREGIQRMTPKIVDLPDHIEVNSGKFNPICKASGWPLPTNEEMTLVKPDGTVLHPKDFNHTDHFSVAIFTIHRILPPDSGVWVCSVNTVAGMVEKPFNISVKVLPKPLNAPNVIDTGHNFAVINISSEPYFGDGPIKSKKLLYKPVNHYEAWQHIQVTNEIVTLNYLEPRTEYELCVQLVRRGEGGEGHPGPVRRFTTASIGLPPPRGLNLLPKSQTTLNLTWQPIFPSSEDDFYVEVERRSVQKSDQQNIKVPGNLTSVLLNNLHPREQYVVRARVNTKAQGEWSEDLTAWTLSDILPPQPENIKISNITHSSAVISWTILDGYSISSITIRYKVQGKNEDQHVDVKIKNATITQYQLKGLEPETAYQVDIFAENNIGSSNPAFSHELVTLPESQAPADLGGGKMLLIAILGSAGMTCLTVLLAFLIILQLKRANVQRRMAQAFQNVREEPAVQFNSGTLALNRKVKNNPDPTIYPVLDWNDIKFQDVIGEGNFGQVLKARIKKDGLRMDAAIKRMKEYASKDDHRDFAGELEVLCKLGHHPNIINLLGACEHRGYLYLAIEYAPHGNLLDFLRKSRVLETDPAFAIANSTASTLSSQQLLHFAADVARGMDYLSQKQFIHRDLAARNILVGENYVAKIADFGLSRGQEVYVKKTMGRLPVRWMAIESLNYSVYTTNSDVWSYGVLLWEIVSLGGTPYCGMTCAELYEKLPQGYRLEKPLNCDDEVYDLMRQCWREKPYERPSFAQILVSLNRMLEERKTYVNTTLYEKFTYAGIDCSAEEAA

[25] = biological target: cGMP-inhibited 3',5'-cyclic phosphodiesterase 3A (Homo sapiens, UniProt Q14432); assay: Inhibition of recombinant human N-terminal GST/His-tagged PDE3A (669 to 1141 residues) expressed in baculovirus infected Sf9 insect cells using iFL-cAMP as substrate preincubated for 15 mins followed by substrate addition and measured after 40 mins by fluorescence assay
[26] = Inhibition of PI3K (unknown origin); set-up: species or system Homo sapiens
[27] = biological target: Mitogen-activated protein kinase 11 (Homo sapiens) (UniProt Q15759); assay: Inhibition of recombinant human N-terminal GST-tagged full-length p38beta2 expressed in Escherichia coli at 2 uM using MBP as substrate relative to control
[28] = biological target: Vascular endothelial growth factor receptor 2 (Homo sapiens, UniProt P35968); assay: Inhibition of KDR (unknown origin)

SMILES: C[C@@H](c1ccc2ncccc2c1)c1nnc2sc(-c3cnn(C)c3)nn12
- pIC50 [1]: 7.70
- inhibition [2]: < 50%
- inhibition [3]: < 50%
- inhibition [4]: < 50%
- inhibition [5]: < 50%
- inhibition [6]: < 50%
- inhibition [7]: < 50%
- inhibition [8]: < 50%
- inhibition [9]: < 50%
- inhibition [10]: < 50%
- inhibition [11]: < 50%
- inhibition [12]: < 50%
- pKi [13]: < 5.40
- inhibition [14]: < 50%
- inhibition [15]: < 50%
- inhibition [16]: < 50%
- inhibition [17]: < 50%
- inhibition [18]: < 50%
- inhibition [19]: < 50%
- CL free [20]: 5.1 µL/min
- inhibition [21]: < 50%
- CL free [22]: 7.2 µL/min
- inhibition [23]: < 50%
- inhibition [24]: < 50%
- pIC50 [25]: 6.30
- pKi [26]: < 5.40
- inhibition [27]: < 50%
- pKi [28]: < 5.40
